In brackets after ≈: the same amount, converted by molar mass. Read-outs that look alike come from different tables or passages of the source.
How the values were obtained:
[1] = system: Candida krusei ATCC 6258; assay: In vitro antifungal broth microdilution test; type: cell-based; conditions: 35 °C, RPMI 1640 pH 7.0, CLSI M27-A2 (IC80 value); for MIC: Pichia kudriavzevii, ATCC6258
[2] = system: Candida tropicalis 156; assay: In vitro antifungal broth microdilution test; type: cell-based; conditions: 35 °C, RPMI 1640 pH 7.0, CLSI M27-A2 (IC80 value); for MIC: Candida tropicalis, 156
[3] = system: photosynthetic electron transport (PET) in spinach chloroplasts; assay: Inhibition of photosynthetic electron transport (PET) in spinach chloroplasts, DCPIP photoreduction; type: biochemical, Spinacia oleracea L.; conditions: DCPIP as electron acceptor, phosphate buffer pH 7.2, read-out: PET reduction IC50
Experimental: Chloroplasts were prepared from spinach (Spinacia oleracea L.) according to Masarovicova and Kralova. The inhibition of photosynthetic electron transport (PET) in spinach chloroplasts was determined spectrophotometrically (Genesys 6, Thermo Scientific, USA) using an artificial electron acceptor 2,6-dichlorophenol-indophenol (DCIPP) according to Kralova et al. and the rate of photosynthetic electron transport was monitored as a photoreduction of DCPIP. The measurements were carried out in phosphate buffer (0.02 mol/L, pH 7.2) containing sucrose (0.4 mol/L), MgCl2 (0.005 mol/L) and NaCl (0.015 mol/L). The chlorophyll content was 30 mg/L in these experiments and the samples were irradiated (~100 W/m^2) from 10 cm distance with a halogen lamp (250 W) using a 4 cm water filter to prevent warming of the samples (suspension temperature 22 °C). The studied compounds were dissolved in DMSO due to their limited water solubility. […] The inhibitory efficiency of the studied compounds was expressed by IC50 values, i.e., by molar concentration of the compounds causing 50% decrease in the oxygen evolution rate relative to the untreated control.

[4] = system: Candida glabrata 20/I; assay: In vitro antifungal broth microdilution test; type: cell-based; conditions: 35 °C, RPMI 1640 pH 7.0, CLSI M27-A2 (IC80 value); for MIC: Nakaseomyces glabratus, 20/I
[5] = system: Trichosporon beigelii 1188; assay: In vitro antifungal broth microdilution test; type: cell-based
Experimental: Fluconazole (FLU) was used as the standard of a clinically used antimycotic drug. The procedure was performed with twofold dilution of the compounds in RPMI 1640 (Sevapharma a.s., Prague, Czech Republic) buffered to pH 7.0 with 0.165 mol of 3-morpholino-propane-1-sulfonic acid (MOPS, Sigma, Germany). The final concentrations of the compounds ranged from 500 to 0.975 μmol/L. Drug–free controls were included. The MIC determination was performed according to the CLSI (formerly NCCLS) reference protocol M27-A2 for yeasts (IC80 value) and M38-A for moulds (IC50 value). […] The values of MICs were determined after 24 and 48 h of static incubation at 35 °C. For T. mentagrophytes, the final MICs were determined after 72 and 120 h of incubation.

[6] = system: Trichophyton mentagrophytes 445; assay: In vitro antifungal broth microdilution test; type: cell-based
[7] = system: Absidia corymbifera 272; assay: In vitro antifungal broth microdilution test; type: cell-based; conditions: 35 °C, RPMI 1640 pH 7.0, CLSI M38-A (IC50 value); for MIC: Lichtheimia corymbifera, 272
[8] = system: Aspergillus fumigatus 231; assay: In vitro antifungal broth microdilution test; type: cell-based; conditions: 35 °C, RPMI 1640 pH 7.0, CLSI M38-A (IC50 value); for MIC: Aspergillus fumigatus, 231
[9] = system: Candida albicans ATCC 44859; assay: In vitro antifungal broth microdilution test; type: cell-based; conditions: 35 °C, RPMI 1640 pH 7.0, CLSI M27-A2 (IC80 value); for MIC: Candida albicans, ATCC44859
[10] = Lipophilicity determination by RP-HPLC (capacity factor k / log k); type: physicochemical; conditions: C18 column, isocratic MeOH 55.0% / H2O 45.0%
Source text: A Waters Alliance 2695 XE HPLC separation module and Waters Photodiode Array Detector 2996 (Waters Corp., Milford, MA, USA) were used. A Symmetry® C18 5 μm, 4.6 × 250 mm, Part No. WAT054275, (Waters Corp., Milford, MA, USA) chromatographic column was used. The HPLC separation process was monitored by Millennium32® Chromatography Manager Software, Waters 2004 (Waters Corp., Milford, MA, USA). A mixture of MeOH p.a. (55.0%) and H2O-HPLC– Mili-Q Grade (45.0%) was used as a mobile phase. The total flow of the column was 0.9 mL/min, injection 30 μL, column temperature 30 °C and sample temperature 10 °C. The detection wavelength 210 nm was chosen. The KI methanolic solution was used for the dead time (tD) determination. Retention times (tR) were measured in minutes.
The capacity factors k were calculated using the Millennium32® Chromatography Manager Software according to formula k = (tR - tD)/tD, where tR is the retention time of the solute, whereas tD denotes the dead time obtained via an unretained analyte. Log k, calculated from the capacity factor k, is used as the lipophilicity index converted to log P scale.

[11] = Trichosporon beigelii, 1188, 24h, 35 °C, RPMI 1640 pH 7.0, CLSI M27-A2 (IC80 value), read-out: MIC TB
[12] = Trichosporon beigelii, 1188, 48h, 35 °C, RPMI 1640 pH 7.0, CLSI M27-A2 (IC80 value), read-out: MIC TB
[13] = Trichophyton mentagrophytes, 445, 120 h, pH 7
[14] = Trichophyton mentagrophytes, 445, 72h, RPMI 1640 pH 7.0, CLSI M38-A (IC50 value)

Molecule | IC50 [3] | log k [10] | MIC ([1]; 24h) | MIC ([1]; 48h) | MIC ([2]; 24h) | MIC ([2]; 48h) | MIC ([4]; 24h) | MIC ([4]; 48h) | MIC [5, 11] | MIC [5, 12] | MIC [6, 13] | MIC [6, 14] | MIC ([7]; 24h) | MIC ([7]; 48h) | MIC ([8]; 24h) | MIC ([8]; 48h) | MIC ([9]; 24h) | MIC ([9]; 48h) | further results
8-Hydroxyquinoline-5-sulfonic acid isobutylamide [Compound 5] | 54.4 µM | 0.3373 |  |  |  |  |  |  |  |  |  |  |  |  |  |  |  |  | MIC CK ([1]; 24h): 250 µM; MIC CK ([1]; 48h): 250 µM; MIC CT ([2]; 24h): 250 µM; MIC CT ([2]; 48h): 250 µM; MIC CG ([4]; 24h): 125 µM; MIC CG ([4]; 48h): 250 µM; MIC TB ([5]; 24h, 35 °C, RPMI 1640 pH 7.0, CLSI M27-A2 (IC80 value)): 250 µM; MIC TB ([5]; 48h, 35 °C, RPMI 1640 pH 7.0, CLSI M27-A2 (IC80 value)): 500 µM; MIC TM ([6]; 72h, RPMI 1640 pH 7.0, CLSI M38-A (IC50 value)): 62.50 µM; MIC TM ([6]; 120h, RPMI 1640 pH 7.0, CLSI M38-A (IC50 value)): 125 µM; MIC AC ([7]; 24h): 125 µM; MIC AC ([7]; 48h): 125 µM; MIC AF ([8]; 24h): 250 µM; MIC AF ([8]; 48h): 250 µM; MIC CA ([9]; 24h): 125 µM; MIC CA ([9]; 48h): 250 µM
O=[N+]([O-])c1ccc(O)c2ncccc12 [Compound 1, 5-Nitroquinolin-8-ol] | 78 µM | 0.5695 | > 500 µM | > 500 µM | > 500 µM | > 500 µM | > 500 µM | > 500 µM | > 500 µM | > 500 µM | > 500 µM | > 500 µM | > 500 µM | > 500 µM | > 500 µM | > 500 µM | > 500 µM | > 500 µM | 
O=[N+]([O-])c1cc(S(=O)(=O)O)c2cccnc2c1O [Compound 2, 8-Hydroxy-7-nitroquinoline-5-sulfonic acid] |  | 0.1479 | > 250 µM | > 250 µM | > 250 µM | > 250 µM | > 250 µM | > 250 µM | > 250 µM | > 250 µM | > 250 µM | > 250 µM | > 250 µM | > 250 µM | > 250 µM | > 250 µM | > 250 µM | > 250 µM | 
O=S(=O)(O)c1cc(Br)c(O)c2ncccc12 [Compound 3, 7-Bromo-8-hydroxyquinoline-5-sulfonic acid] | 33.5 µM | 0.3786 | 3.9 µM (≈ 1.19 µg/mL) | 3.9 µM (≈ 1.19 µg/mL) | 1.95 µM (≈ 0.593 µg/mL) | 3.9 µM (≈ 1.19 µg/mL) | 1.95 µM (≈ 0.593 µg/mL) | 3.9 µM (≈ 1.19 µg/mL) |  | 3.9 µM (≈ 1.19 µg/mL) | 1.95 µM (≈ 0.593 µg/mL) | 1.95 µM (≈ 0.593 µg/mL) | 7.8 µM (≈ 2.37 µg/mL) | 7.8 µM (≈ 2.37 µg/mL) | 0.77 µM (≈ 0.234 µg/mL) | 1.95 µM (≈ 0.593 µg/mL) | 0.77 µM (≈ 0.234 µg/mL) | 1.95 µM (≈ 0.593 µg/mL) | MIC ([5]; Trichosporon beigelii, 1188, 24 h, pH 7, read-out: MIC TB): 3.9 µM (≈ 1.19 µg/mL)
O=S(=O)(c1ccc(O)c2ncccc12)N1CCOCC1 [Compound 4, 5-(Morpholine-4-sulfonyl)quinolin-8-ol] |  | 0.3293 | 250 µM (≈ 73.6 µg/mL) | 500 µM (≈ 147 µg/mL) | 500 µM (≈ 147 µg/mL) | 500 µM (≈ 147 µg/mL) | 500 µM (≈ 147 µg/mL) | 500 µM (≈ 147 µg/mL) | 500 µM (≈ 147 µg/mL) | 500 µM (≈ 147 µg/mL) | 250 µM (≈ 73.6 µg/mL) | 250 µM (≈ 73.6 µg/mL) | 125 µM (≈ 36.8 µg/mL) | 250 µM (≈ 73.6 µg/mL) | 500 µM (≈ 147 µg/mL) | 500 µM (≈ 147 µg/mL) | 125 µM (≈ 36.8 µg/mL) | 500 µM (≈ 147 µg/mL) | 
O=S(=O)(NCCc1ccccc1)c1ccc(O)c2ncccc12 [Compound 6, 8-Hydroxyquinoline-5-sulfonic acid (2-phenylethyl)amide] | 304 µM | 0.3349 | 125 µM (≈ 41 µg/mL) | 125 µM (≈ 41 µg/mL) | 125 µM (≈ 41 µg/mL) | 125 µM (≈ 41 µg/mL) | 125 µM (≈ 41 µg/mL) | 125 µM (≈ 41 µg/mL) | 125 µM (≈ 41 µg/mL) | 125 µM (≈ 41 µg/mL) | 125 µM (≈ 41 µg/mL) | 125 µM (≈ 41 µg/mL) | 125 µM (≈ 41 µg/mL) | 125 µM (≈ 41 µg/mL) | 125 µM (≈ 41 µg/mL) | 125 µM (≈ 41 µg/mL) | 125 µM (≈ 41 µg/mL) | 125 µM (≈ 41 µg/mL) | 
O=S(=O)(NCCCCc1ccccc1)c1ccc(O)c2ncccc12 [Compound 7, 8-Hydroxyquinoline-5-sulfonic acid (4-phenylbutyl)amide] | 616 µM | 0.3902 | > 125 µM | > 125 µM | > 125 µM | > 125 µM | > 125 µM | > 125 µM | > 125 µM | > 125 µM | > 125 µM | > 125 µM | > 125 µM | > 125 µM | > 125 µM | > 125 µM | > 125 µM | > 125 µM | 
CC(=O)Nc1ccc2cccc(OC(C)=O)c2n1 [Compound 8, 2-Acetylaminoquinolin-8-yl acetate] | 306 µM | 0.3583 | 62.5 µM | 62.5 µM | 31.2 µM | 31.2 µM | 31.2 µM | 62.5 µM | 62.5 µM | 125 µM | 62.5 µM | 62.5 µM | 62.5 µM | 62.5 µM | 62.5 µM | 62.5 µM | 15.6 µM | 62.5 µM | 
Oc1ccccc1C=Cc1ccc2c(Cl)cc(Cl)c(O)c2n1 [Compound 9, 5,7-Dichloro-2-[2-(2-hydroxyphenyl)vinyl]quinolin-8-ol] |  | 1.5854 |  |  |  |  |  |  |  |  |  |  |  |  |  |  |  |  | 
OC(Cn1cncn1)(Cn1cncn1)c1ccc(F)cc1F [FLU, fluconazole, reference compound] |  |  | 3.91 µM (≈ 1.2 µg/mL) | 15.6 µM (≈ 4.78 µg/mL) | 0.12 µM (≈ 0.0368 µg/mL) | > 125 µM | 0.98 µM (≈ 0.3 µg/mL) | 3.91 µM (≈ 1.2 µg/mL) | 0.24 µM (≈ 0.0735 µg/mL) | 0.48 µM (≈ 0.147 µg/mL) | 3.91 µM (≈ 1.2 µg/mL) | 1.95 µM (≈ 0.597 µg/mL) | > 125 µM | > 125 µM | > 125 µM | > 125 µM | 0.06 µM (≈ 0.0184 µg/mL) | 0.12 µM (≈ 0.0368 µg/mL) | 

Reference: publication PMC6256987, “Investigating the Activity Spectrum for Ring-Substituted 8-Hydroxyquinolines” (Molecules, 2010)
